According to patent US5989846A, “Assays to identify inducers of plant defense resistance” (Rutgers, The State University of New Jersey, priority 1995, dated 1999):

How the values were obtained:
[1] = system: salicylic acid binding protein; test: Competitive [14C] salicylic acid binding assay (spin-column); set-up: species or system tobacco; details: [14C] salicylic acid 20 μM
Protocol: The 180 kDa native binding protein isolated was tested for binding affinity and specificity. A competitive assay was established using salicylic acid binding protein fractionated from plants as previously described.
A key element during the characterization and the purification process is a simple, inexpensive, sensitive and reliable method for determining the salicylic acid binding activity. For this purpose, spin-column exclusion chromatography was used to separate the bound [^14 C] salicylic acid (excluded) from the bulk free salicylic acid (included). Specifically, a 1.5 ml Eppendorf tube was punctured at the tip with a 20-gauge needle and a small amount of glass wool was added to cover the small hole. The tube was then filled with Bio-Gel P-6DG desalting gel (exclusion limit 6 KDa; purchased from Bio-Rad, Melville, N.Y.) which have been swollen in water. An alternative gel is Sephadex G-25 fine (from Pharmacia, Piscataway, N.J.). Excess liquid in the gel was removed and centrifuged for 5 minutes at full speed in a Dynamic centrifuge (Becton Dickinson). The process was then repeated several times until the gel filled the tube. After incubation of an aliquot of the extract or column fractions for 2 hr at 4° C. with 5 μM-20 μM [^14 C salicylic acid] (specifically radioactivity 55 Ci/mol; purchased from New England Nuclear), 150 μl of proteins binding sample was loaded onto the tube column, which was then rapidly centrifuged for 2 minutes at full speed and the solution of proteins and bound [^14 C-salicylic acid] that was excluded from the gel was collected into another tube that had been placed under the tube column during the centrifugation. One hundred microliters of this solution was then used to determine the amount of bound salicylic acid. […] For example, to determine the inhibitory effect of various salicylic acid analogues on salicylic acid binding activity, these individual analogues were included in the binding mixture containing both the protein and [^14 C] salicylic acid during the 2 hr incubation, and resulting binding activity was determined in comparison to the activity in the absence of these analogues. Likewise, to determine the effect of pH and antioxidants on the binding activity the protein sample was either dialyzed against a large volume of buffers with different pH or antioxidants were added to the protein sample to various concentrations and the resulting binding activities were then determined with the spin-column method in comparison with the activity determined in the absence of these treatments.

H2 O2 = test: Abundance of H2O2 in treated tobacco leaves; type: in vivo; details: FIG. 11
Excerpt: The abundance of H2 O2 increased in SA- or 3AT-treated tobacco leaves by 50-60% over the control levels observed in water-treated leaves. […] Thus, elevated levels of H2 O2, and in turn, enhanced oxidative stress in vivo, were consistent with inhibition of catalase activity by SA observed in vitro.

[2] = target: T1, catalase activity of SABP (Nicotiana tabacum, UniProt P49319); test: Catalase activity of highly purified SABP (luminol method); type: biochemical, tobacco; details: 0.05 h; 1 mM SA or analogue, 1 mM H2O2, 500 ng highly purified SABP
T1 sequence (P49319 1-492): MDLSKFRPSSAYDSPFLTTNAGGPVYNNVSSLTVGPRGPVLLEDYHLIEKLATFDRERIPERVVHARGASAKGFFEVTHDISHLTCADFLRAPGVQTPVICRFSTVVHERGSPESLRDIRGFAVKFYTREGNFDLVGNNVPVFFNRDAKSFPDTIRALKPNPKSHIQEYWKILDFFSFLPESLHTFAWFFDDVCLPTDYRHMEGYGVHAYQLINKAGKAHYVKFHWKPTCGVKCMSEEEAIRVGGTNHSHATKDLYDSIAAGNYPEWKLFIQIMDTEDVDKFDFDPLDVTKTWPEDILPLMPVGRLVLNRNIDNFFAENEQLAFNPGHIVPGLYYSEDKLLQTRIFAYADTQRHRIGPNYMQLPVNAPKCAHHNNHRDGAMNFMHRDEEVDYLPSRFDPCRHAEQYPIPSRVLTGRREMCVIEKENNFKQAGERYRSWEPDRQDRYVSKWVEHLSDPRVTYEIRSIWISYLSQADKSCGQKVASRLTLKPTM
Protocol: Aliquots (50 μl) were removed from the assay mixture at 30 second intervals to assay for amount of H2 O2 remaining using the luminol method as has been described by Warm and Laties, Phytochem. […] The tube was placed in the measuring chamber and assay was initiated with automatic injection into the mixture of 100 μl of 0.5 mM K3 Fe(CN)6 in 0.2N NH4 OH, pH 9.5. Measurements were integrated over 5 second periods. H2 O2 was calculated from the standard curve constructed with known amounts of H2 O2. Rate constants of SABP catalase activity in the presence or absence of SA or its analogues were then calculated based on a first-order mechanism.

ascorbate peroxidase = test: Ascorbate peroxidase activity in tobacco leaf extracts; type: biochemical, Nicotiana tabacum cv. Xanthi nc; details: 200 μM compound, corrected for quenching of auto oxidation
How it was run: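 Soluble extracts from leaves of 6–8-week Nicotiana tabacum cv. Xanthi nc, desalted into 50 mM potassium phosphate pH 7 with 100 μM ascorbate, were assayed (30–50 μg protein) with or without 100 or 1000 μM SA or INA. Ascorbate oxidation followed as A290 decrease; means of three replicates.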

SABP = system: SABP; set-up: concentration or dose not given beside the values; details: Table 6; previously published data (Chen et al. 1993); cited from earlier work
[3] = system: resistance or PR gene expression; set-up: key: ++: indicates a high level of biological activity; +: indicates a lower level of biological activity; ±: indicates low, but detectable biological activity in some assays; -: indicates no biological activity; details: Table 3; values reported in literature; cited from earlier work
bovine catalase = target: T2, bovine catalase (Bos taurus, UniProt P00432); details: Kirkman and Gaetani 1984; cited from earlier work
T2 sequence (P00432 2-527 limits assumed): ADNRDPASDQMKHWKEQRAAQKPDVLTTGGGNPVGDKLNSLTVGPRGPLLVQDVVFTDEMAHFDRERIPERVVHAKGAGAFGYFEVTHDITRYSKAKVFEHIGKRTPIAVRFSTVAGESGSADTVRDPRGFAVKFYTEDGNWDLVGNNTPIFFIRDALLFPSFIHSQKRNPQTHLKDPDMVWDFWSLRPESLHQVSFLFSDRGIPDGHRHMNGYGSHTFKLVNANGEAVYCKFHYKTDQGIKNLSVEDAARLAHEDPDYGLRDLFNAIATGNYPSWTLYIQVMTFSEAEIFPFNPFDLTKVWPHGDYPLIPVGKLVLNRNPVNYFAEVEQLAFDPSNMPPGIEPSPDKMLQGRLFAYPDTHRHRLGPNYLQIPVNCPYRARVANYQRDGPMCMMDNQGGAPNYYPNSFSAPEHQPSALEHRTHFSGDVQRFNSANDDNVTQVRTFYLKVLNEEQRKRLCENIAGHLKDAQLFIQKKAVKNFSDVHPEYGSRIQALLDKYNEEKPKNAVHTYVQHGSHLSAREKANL

Row | Inhibition (%) 2× ([1]; 40 μM (2×) unlabeled competitor) [%] | Inhibition (%) 10× ([1]; 200 μM (10×) unlabeled competitor) [%] | inhibition at 1000 µM [2] [%] | % Inhibition of ascorbate peroxidase (ascorbate peroxidase) [%] | SMILES | Increase in abundance of H2O2 over water-treated leaves (H2 O2) | Inhibition (%) [14C]SA binding (SABP) [%] | Biological activity [3] | Binding to bovine catalase (bovine catalase)
1 | -2 | 0 | 3.1 | 28 ± 7 | O=C(O)c1cccc(O)c1 [3-Hydroxybenzoic acid] | unable to enhance | 1 | - | 
2 |  |  |  |  | NC(=O)C1=CN([C@@H]2O[C@H](COP(=O)(O)OP(=O)(O)OC[C@H]3O[C@@H](n4cnc5c(N)ncnc54)[C@H](O)[C@@H]3O)[C@@H](O)[C@H]2O)C=CC1 [NADH, nicotinamide adenine dinucleotide] |  |  |  | tightly binds
3 |  |  |  |  | NC(=O)C1=CN([C@@H]2O[C@H](COP(=O)(O)OP(=O)(O)OC[C@H]3O[C@@H](n4cnc5c(N)ncnc54)[C@H](OP(=O)(O)O)[C@@H]3O)[C@@H](O)[C@H]2O)C=CC1 [NADPH, nicotinamide adenine dinucleotide phosphate] |  |  |  | tightly binds
